{
  "source": "PubChem BioAssay AID248",
  "about": "(DTP/NCI, 2004)",
  "system": "L1210 leukemia ip in BDF1 mice, survival T/C",
  "test": "NCI In Vivo Anticancer Drug Screen. Data for tumor model L1210 Leukemia (intraperitoneal) in B6D2F1 (BDF1) mice",
  "settings": "higher = longer survival",
  "summary_of_the_method": "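Transplantable tumor model; survival measured in treated vs vehicle control mice. Value = treated/control.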",
  "note": "Values joined by “and” are separate entries in the source; they are usually repeats but may differ in a detail not shown here. Equal entries are not always repeated. Toxic doses and inconclusive results are not listed.",
  "data": [
    {"smiles": "Nc1ncn(C2OC(CO)C(O)C2O)c(=O)n1", "note": "(stereo not given)", "values": [
      {"measurement": "T/C", "setting": "endpoint: mean survival time, dose: 12.0 mg/kg/injection, schedule: Q## X008 (ip), vehicle: saline", "value": "161 % of control and 162 % of control"},
      {"measurement": "T/C", "setting": "endpoint: mean survival time, dose: 12.5 mg/kg/injection, schedule: Q01DX001 (ip), vehicle: saline", "value": "164 % of control"},
      {"measurement": "T/C", "setting": "endpoint: mean survival time, dose: 12.5 mg/kg/injection, schedule: Q01DX005 (ip), vehicle: saline", "value": "172 % of control"},
      {"measurement": "T/C", "setting": "endpoint: mean survival time, dose: 22.0 mg/kg/injection, schedule: Q01DX001 (ip), vehicle: other", "value": "153 % of control"},
      {"measurement": "T/C", "setting": "endpoint: mean survival time, dose: 22.0 mg/kg/injection, schedule: Q01DX001 (ip), vehicle: saline", "value": "160 % of control"},
      {"measurement": "T/C", "setting": "endpoint: mean survival time, dose: 24.0 mg/kg/injection, schedule: Q01DX001 (ip), vehicle: saline", "value": "158 % of control"},
      {"measurement": "T/C", "setting": "endpoint: mean survival time, dose: 24.0 mg/kg/injection, schedule: Q01DX009 (ip), vehicle: saline", "value": "93 % of control"},
      {"measurement": "T/C", "setting": "endpoint: mean survival time, dose: 24.0 mg/kg/injection, schedule: Q## X008 (ip), vehicle: saline", "value": "171 % of control"},
      {"measurement": "T/C", "setting": "endpoint: mean survival time, dose: 25.0 mg/kg/injection, schedule: Q01DX001 (ip), vehicle: saline", "value": "166 % of control and 168 % of control"},
      {"measurement": "T/C", "setting": "endpoint: mean survival time, dose: 32.0 mg/kg/injection, schedule: Q01DX001 (oral), vehicle: saline", "value": "112 % of control"},
      {"measurement": "T/C", "setting": "endpoint: mean survival time, dose: 32.0 mg/kg/injection, schedule: Q## X003 (oral), vehicle: saline", "value": "163 % of control"},
      {"measurement": "T/C", "setting": "endpoint: mean survival time, dose: 32.0 mg/kg/injection, schedule: Q## X024 (oral), vehicle: saline", "value": "173 % of control"},
      {"measurement": "T/C", "setting": "endpoint: mean survival time, dose: 33.0 mg/kg/injection, schedule: Q01DX001 (ip), vehicle: saline", "value": "153 % of control"},
      {"measurement": "T/C", "setting": "endpoint: mean survival time, dose: 48.0 mg/kg/injection, schedule: Q01DX009 (ip), vehicle: saline", "value": "102 % of control"},
      {"measurement": "T/C", "setting": "endpoint: mean survival time, dose: 64.0 mg/kg/injection, schedule: Q01DX001 (oral), vehicle: saline", "value": "111 % of control"},
      {"measurement": "T/C", "setting": "endpoint: mean survival time, dose: 64.0 mg/kg/injection, schedule: Q## X003 (oral), vehicle: saline", "value": "163 % of control and 164 % of control"},
      {"measurement": "T/C", "setting": "endpoint: mean survival time, dose: 64.0 mg/kg/injection, schedule: Q## X008 (oral), vehicle: saline", "value": "158 % of control"},
      {"measurement": "T/C", "setting": "endpoint: mean survival time, dose: 69.0 mg/kg/injection, schedule: Q04DX002 (ip), vehicle: saline", "value": "150 % of control"},
      {"measurement": "T/C", "setting": "endpoint: mean survival time, dose: 75.0 mg/kg/injection, schedule: Q01DX001 (ip), vehicle: other", "value": "168 % of control"},
      {"measurement": "T/C", "setting": "endpoint: mean survival time, dose: 96.0 mg/kg/injection, schedule: Q01DX001 (ip), vehicle: saline", "value": "174 % of control"},
      {"measurement": "T/C", "setting": "endpoint: mean survival time, dose: 96.0 mg/kg/injection, schedule: Q## X003 (ip), vehicle: saline", "value": "114 % of control"},
      {"measurement": "T/C", "setting": "endpoint: mean survival time, dose: 100.0 mg/kg/injection, schedule: Q01DX001 (ip), vehicle: other", "value": "162 % of control"},
      {"measurement": "T/C", "setting": "endpoint: mean survival time, dose: 125.0 mg/kg/injection, schedule: Q01DX001 (ip), vehicle: saline", "value": "151 % of control"},
      {"measurement": "T/C", "setting": "endpoint: mean survival time, dose: 150.0 mg/kg/injection, schedule: Q01DX001 (ip), vehicle: saline", "value": "154 % of control"},
      {"measurement": "T/C", "setting": "endpoint: mean survival time, dose: 200.0 mg/kg/injection, schedule: Q01DX001 (ip), vehicle: other", "value": "118 % of control"},
      {"measurement": "T/C", "setting": "endpoint: mean survival time, dose: 256.0 mg/kg/injection, schedule: Q## X003 (oral), vehicle: saline", "value": "171 % of control"},
      {"measurement": "T/C", "setting": "endpoint: mean survival time, dose: 512.0 mg/kg/injection, schedule: Q## X003 (oral), vehicle: saline", "value": "111 % of control"},
      {"measurement": "T/C", "setting": "endpoint: mean survival time, dose: 768.0 mg/kg/injection, schedule: Q01DX001 (oral), vehicle: saline", "value": "157 % of control"},
      {"measurement": "T/C", "setting": "endpoint: median survival time, dose: 0.75 mg/kg/injection, schedule: Q01DX009 (ip), vehicle: saline", "value": "160 % of control"},
      {"measurement": "T/C", "setting": "endpoint: median survival time, dose: 0.78 mg/kg/injection, schedule: Q01DX009 (ip), vehicle: saline", "value": "150 % of control"},
      {"measurement": "T/C", "setting": "endpoint: median survival time, dose: 1.0 mg/kg/injection, schedule: Q01DX005 (ip), vehicle: saline", "value": "120 % of control"},
      {"measurement": "T/C", "setting": "endpoint: median survival time, dose: 1.3 mg/kg/injection, schedule: Q01DX009 (ip), vehicle: saline", "value": "154 % of control and 159 % of control"},
      {"measurement": "T/C", "setting": "endpoint: median survival time, dose: 2.0 mg/kg/injection, schedule: Q01DX005 (ip), vehicle: saline", "value": "169 % of control"},
      {"measurement": "T/C", "setting": "endpoint: median survival time, dose: 3.6 mg/kg/injection, schedule: Q01DX009 (ip), vehicle: saline", "value": "100 % of control and 104 % of control"},
      {"measurement": "T/C", "setting": "endpoint: median survival time, dose: 5.0 mg/kg/injection, schedule: Q01DX001 (ip), vehicle: saline", "value": "121 % of control and 122 % of control"},
      {"measurement": "T/C", "setting": "endpoint: median survival time, dose: 6.0 mg/kg/injection, schedule: Q01DX009 (ip), vehicle: saline", "value": "110 % of control"},
      {"measurement": "T/C", "setting": "endpoint: median survival time, dose: 8.0 mg/kg/injection, schedule: Q01DX005 (ip), vehicle: saline", "value": "154 % of control"},
      {"measurement": "T/C", "setting": "endpoint: median survival time, dose: 8.4 mg/kg/injection, schedule: Q01DX009 (ip), vehicle: saline", "value": "99 % of control and 100 % of control"},
      {"measurement": "T/C", "setting": "endpoint: median survival time, dose: 40.0 mg/kg/injection, schedule: Q01DX001 (ip), vehicle: saline", "value": "153 % of control and 155 % of control"},
      {"measurement": "T/C", "setting": "endpoint: median survival time, dose: 80.0 mg/kg/injection, schedule: Q01DX001 (ip), vehicle: saline", "value": "151 % of control and 155 % of control"}
    ]}
  ]
}
